Experimental data reported in PubChem BioAssay AID192 (DTP/NCI, 2004).
Several values for one entry are separate records, joined by “and”; a condition that tells them apart may be missing. Equal values may be shown once. Inconclusive results and toxic doses are left out. Rule for the calls: active = survival T/C of 150% or more; inactive = T/C below 125% in these data.

System: BDF1 mice, B16 melanoma ip, median survival T/C
Test: NCI In Vivo Anticancer Drug Screen. Data for tumor model B16 Melanoma (intraperitoneal) in B6D2F1 (BDF1) mice
Conditions: endpoint: median survival time, higher = longer survival
In short: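 Vehicle-treated animals serve as the reference (C); treated animals (T) are scored for survival or tumor size after tumor transplantation.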

[1] = dose: 25.0 mg/kg/injection, schedule: Q01DX009 (ip), vehicle: Klucel (hydroxypropylcellulose) (HPC)
[2] = dose: 400.0 mg/kg/injection, schedule: Q01DX009 (ip), vehicle: Klucel (hydroxypropylcellulose) (HPC)

Measured: T/C

C[n+]1ccc(Nc2ccc(NC(=O)c3ccc(Nc4cc[n+](C)c5ccc(N)cc45)cc3N)cc2)cc1
inactive: dose: 1.0 mg/kg/injection, schedule: Q01DX009 (ip), vehicle: saline with Tween-80 98 % of control | dose: 1.0 mg/kg/injection, schedule: Q02DX009 (ip), vehicle: Klucel (hydroxypropylcellulose) (HPC) 103 % of control and 105 % of control | dose: 2.0 mg/kg/injection, schedule: Q01DX009 (ip), vehicle: saline with Tween-80 105 % of control | dose: 2.0 mg/kg/injection, schedule: Q02DX009 (ip), vehicle: Klucel (hydroxypropylcellulose) (HPC) 109 % of control and 113 % of control | dose: 4.0 mg/kg/injection, schedule: Q01DX009 (ip), vehicle: saline with Tween-80 109 % of control | dose: 4.0 mg/kg/injection, schedule: Q02DX009 (ip), vehicle: Klucel (hydroxypropylcellulose) (HPC) 101 % of control and 106 % of control | dose: 6.25 mg/kg/injection, schedule: Q01DX009 (ip), vehicle: Klucel (hydroxypropylcellulose) (HPC) 109 % of control | dose: 6.25 mg/kg/injection, schedule: Q01DX009 (ip), vehicle: saline 104 % of control | dose: 8.0 mg/kg/injection, schedule: Q01DX009 (ip), vehicle: saline with Tween-80 106 % of control | dose: 8.0 mg/kg/injection, schedule: Q02DX009 (ip), vehicle: Klucel (hydroxypropylcellulose) (HPC) 108 % of control and 110 % of control | dose: 12.5 mg/kg/injection, schedule: Q01DX009 (ip), vehicle: Klucel (hydroxypropylcellulose) (HPC) 105 % of control | dose: 12.5 mg/kg/injection, schedule: Q01DX009 (ip), vehicle: saline 102 % of control | dose: 16.0 mg/kg/injection, schedule: Q01DX009 (ip), vehicle: saline with Tween-80 106 % of control | dose: 16.0 mg/kg/injection, schedule: Q02DX009 (ip), vehicle: Klucel (hydroxypropylcellulose) (HPC) 109 % of control and 113 % of control | [1] 89 % of control | dose: 32.0 mg/kg/injection, schedule: Q02DX009 (ip), vehicle: Klucel (hydroxypropylcellulose) (HPC) 92 % of control and 97 % of control

C=C1C(O)C2(O)OCC34C(CC5C(C)=CC(=O)C(O)C5(C)C23)OC(=O)C(OC(=O)C(C)(O)CC)C14 (stereo not drawn)
active: dose: 1.0 mg/kg/injection, schedule: Q01DX009 (ip), vehicle: saline + alcohol 163 % of control
inactive: dose: 0.06 mg/kg/injection, schedule: Q01DX009 (ip), vehicle: saline + alcohol 109 % of control

CCCCNC(=O)Nc1cccc(C)c1C
inactive: dose: 100.0 mg/kg/injection, schedule: Q01DX009 (ip), vehicle: Klucel (hydroxypropylcellulose) (HPC) 88 % of control | [2] 94 % of control

O.O.[NH-]C1CCCCC1[NH-].[Pt+2] (stereo not drawn)
active: dose: 10.0 mg/kg/injection, schedule: Q01DX009 (ip), vehicle: other 155 % of control
inactive: dose: 0.62 mg/kg/injection, schedule: Q01DX009 (ip), vehicle: dextrose 91 % of control and 111 % of control | dose: 1.25 mg/kg/injection, schedule: Q01DX009 (ip), vehicle: dextrose 118 % of control | dose: 1.25 mg/kg/injection, schedule: Q01DX009 (ip), vehicle: other 120 % of control | dose: 2.5 mg/kg/injection, schedule: Q01DX009 (ip), vehicle: dextrose 124 % of control | dose: 2.5 mg/kg/injection, schedule: Q01DX009 (ip), vehicle: other 120 % of control

O=C1OC(COCC#Cc2ccccc2)CN1c1ccccc1 (stereo not drawn)
inactive: [1] 97 % of control | dose: 50.0 mg/kg/injection, schedule: Q01DX009 (ip), vehicle: Klucel (hydroxypropylcellulose) (HPC) 93 % of control | dose: 100.0 mg/kg/injection, schedule: Q04DX003 (ip), vehicle: saline with Tween-80 102 % of control | dose: 200.0 mg/kg/injection, schedule: Q01DX009 (ip), vehicle: Klucel (hydroxypropylcellulose) (HPC) 91 % of control | dose: 200.0 mg/kg/injection, schedule: Q04DX003 (ip), vehicle: saline with Tween-80 105 % of control | [2] 91 % of control | dose: 400.0 mg/kg/injection, schedule: Q04DX003 (ip), vehicle: saline with Tween-80 108 % of control
